Literature values as cited in patent US20130085461A1, “Method for Pre-Debriding Treatment of Non-Viable Skin Tissue and Compositions and System Thereof” (BIOMEDICAL CONCEPTS LLC, priority 2011, published 2013).
Read-outs that look alike come from different tables or passages of the source.

Molecular target: T1, rat tail Type I collagen (Rattus norvegicus, UniProt P02454+P02466)
T1 construct: host or cells: rat tail (tissue), as reported in the cited work
Details: non-viable rat tail Type I collagen

T1 sequence (P02454 152-1207 limits assumed): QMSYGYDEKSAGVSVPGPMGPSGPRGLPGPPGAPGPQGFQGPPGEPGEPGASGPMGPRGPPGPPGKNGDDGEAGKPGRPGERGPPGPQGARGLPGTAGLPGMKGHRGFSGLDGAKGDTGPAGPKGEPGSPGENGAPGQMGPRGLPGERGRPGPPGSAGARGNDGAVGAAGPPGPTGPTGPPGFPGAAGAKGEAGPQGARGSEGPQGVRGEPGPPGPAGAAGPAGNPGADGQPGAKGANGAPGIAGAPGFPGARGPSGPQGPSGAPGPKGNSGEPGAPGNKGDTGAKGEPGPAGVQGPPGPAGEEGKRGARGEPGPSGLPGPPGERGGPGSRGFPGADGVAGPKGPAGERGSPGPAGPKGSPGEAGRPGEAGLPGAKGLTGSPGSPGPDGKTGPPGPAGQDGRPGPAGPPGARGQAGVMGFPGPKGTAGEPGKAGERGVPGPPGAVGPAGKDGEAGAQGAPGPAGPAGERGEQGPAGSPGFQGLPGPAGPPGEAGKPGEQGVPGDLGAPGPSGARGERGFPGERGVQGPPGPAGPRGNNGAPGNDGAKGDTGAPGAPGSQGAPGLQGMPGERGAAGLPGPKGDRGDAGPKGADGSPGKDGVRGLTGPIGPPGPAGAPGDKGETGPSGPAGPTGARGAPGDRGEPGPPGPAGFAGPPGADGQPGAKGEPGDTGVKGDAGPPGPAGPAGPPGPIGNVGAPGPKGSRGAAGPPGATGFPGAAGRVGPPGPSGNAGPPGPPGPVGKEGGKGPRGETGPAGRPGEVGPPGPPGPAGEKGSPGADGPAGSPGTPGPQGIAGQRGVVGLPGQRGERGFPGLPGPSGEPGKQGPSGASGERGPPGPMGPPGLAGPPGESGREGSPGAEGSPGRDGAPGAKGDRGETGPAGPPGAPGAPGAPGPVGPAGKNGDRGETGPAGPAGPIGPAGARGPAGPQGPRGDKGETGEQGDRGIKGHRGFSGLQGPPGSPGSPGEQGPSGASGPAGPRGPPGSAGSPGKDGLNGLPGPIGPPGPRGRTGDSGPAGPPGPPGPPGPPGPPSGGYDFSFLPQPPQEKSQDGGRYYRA
T1 sequence (P02466 86-1125 limits assumed): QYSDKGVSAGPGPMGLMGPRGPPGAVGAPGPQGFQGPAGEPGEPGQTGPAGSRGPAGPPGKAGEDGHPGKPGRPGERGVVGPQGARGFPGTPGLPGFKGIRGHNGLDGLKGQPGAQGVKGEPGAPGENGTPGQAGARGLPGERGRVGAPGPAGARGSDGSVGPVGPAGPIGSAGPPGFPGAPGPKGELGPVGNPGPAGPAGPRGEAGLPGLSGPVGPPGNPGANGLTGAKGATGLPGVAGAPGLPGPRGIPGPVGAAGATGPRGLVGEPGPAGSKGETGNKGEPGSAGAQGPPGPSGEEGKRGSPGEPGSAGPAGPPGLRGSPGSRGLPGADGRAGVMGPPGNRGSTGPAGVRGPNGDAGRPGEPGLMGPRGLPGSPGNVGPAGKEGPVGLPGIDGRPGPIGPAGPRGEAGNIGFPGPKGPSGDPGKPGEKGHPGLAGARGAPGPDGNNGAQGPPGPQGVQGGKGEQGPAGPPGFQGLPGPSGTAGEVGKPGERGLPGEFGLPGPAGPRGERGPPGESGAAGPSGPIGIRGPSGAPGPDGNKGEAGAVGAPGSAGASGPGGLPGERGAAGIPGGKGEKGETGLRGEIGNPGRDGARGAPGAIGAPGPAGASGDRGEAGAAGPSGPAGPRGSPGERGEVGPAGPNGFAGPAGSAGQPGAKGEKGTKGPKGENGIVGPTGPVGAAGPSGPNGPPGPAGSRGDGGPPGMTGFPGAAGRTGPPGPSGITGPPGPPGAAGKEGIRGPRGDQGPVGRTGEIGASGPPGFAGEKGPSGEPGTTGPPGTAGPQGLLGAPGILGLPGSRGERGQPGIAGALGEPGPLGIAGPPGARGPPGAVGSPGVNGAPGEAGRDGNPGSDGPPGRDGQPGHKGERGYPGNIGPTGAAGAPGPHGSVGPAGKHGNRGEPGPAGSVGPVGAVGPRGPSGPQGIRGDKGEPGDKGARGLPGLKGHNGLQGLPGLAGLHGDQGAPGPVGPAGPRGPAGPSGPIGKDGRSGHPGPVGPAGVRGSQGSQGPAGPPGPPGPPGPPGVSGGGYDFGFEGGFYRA

In the case of `CCCO` [n-propanol], the “reduction of denaturation temperature (Tm=67.5° C.)” value (10 mole %) is given as 3.5 °C.

In the case of `NC(N)=O` [urea], the “reduction of denaturation temperature (Tm=67.5° C.)” value (3M) is given as 13.5 °C.
